Laboratory results taken from paper PMC6225228, “Design, Synthesis and Evaluation of N-pyrazinylbenzamides as Potential Antimycobacterial Agents” (Molecules : A Journal of Synthetic Chemistry and Natural …, 2018).
In brackets after ≈: the same amount, converted by molar mass. Read-outs that look alike come from different tables or passages of the source.

Legend:
[1] = tested on: Candida albicans ATCC 44859; assay: Antifungal microdilution broth, CA; format: cell-based; details: read-out: MIC CA
Candida tropicalis 156 = assay: Antifungal microdilution broth, CT; format: cell-based; details: read-out: MIC CT
Candida krusei E28 = assay: Antifungal microdilution broth, CK; format: cell-based; details: read-out: MIC CK
Candida glabrata 20/I = assay: Antifungal microdilution broth, CG; format: cell-based; details: read-out: MIC CG
Trichosporon asahii 1188 = assay: Antifungal microdilution broth, TA; format: cell-based; details: read-out: MIC TA
[2] = tested on: Aspergillus fumigatus 231; assay: Antifungal microdilution broth, AF; format: cell-based; details: read-out: MIC AF
[3] = tested on: Lichtheimia corymbifera 272; assay: Antifungal microdilution broth, LC; format: cell-based; details: read-out: MIC LC
[4] = tested on: Trichophyton interdigitale 445; assay: Antifungal microdilution broth, TI; format: cell-based; details: read-out: MIC TI
[5] = tested on: eight fungal strains of clinical importance; assay: Antifungal microdilution, all tested fungal strains; format: cell-based; details: for MIC: Trichophyton interdigitale, read-out: MIC, all tested fungal strains
[6] = tested on: Mycobacterium tuberculosis H37Rv CNCTC My 331/88 (ATCC 27294); assay: Antimycobacterial microdilution MABA, M. tuberculosis; format: cell-based; details: for Mtb H37Rv ATCC 27294 MIC: Middlebrook 7H9 with OADC growth supplement, pH = 6.6, MABA; for MIC: Mycobacterium tuberculosis
[7] = tested on: M. kansasii CNCTC My 235/80 (ATCC 12478); assay: Antimycobacterial microdilution MABA, M. kansasii; format: cell-based, Mycobacterium kansasii; details: Mycobacterium kansasii, ATCC12478, pH 6.6, read-out: M. kans. ATCC 12478 MIC, Middlebrook 7H9 with OADC, pH 6.6, MABA
[8] = tested on: M. avium ssp. avium CNCTC My 80/72 (ATCC 15769); assay: Antimycobacterial microdilution MABA, M. avium; format: cell-based, Mycobacterium avium; details: Mycobacterium avium, ATCC15769, pH 6.6, read-out: M. avium ATCC 15769 MIC
[9] = tested on: Mycobacterium smegmatis CCM 4622 (ATCC 607); assay: Antimycobacterial microdilution, M. smegmatis; format: cell-based; details: Mycolicibacterium smegmatis, read-out: M. smeg. ATCC 607 MIC
[10] = tested on: Staphylococcus aureus CCM 4516/08; assay: Antibacterial microdilution broth, SA; format: cell-based; details: Staphylococcus aureus
[11] = tested on: Staphylococcus aureus H 5996/08 methicillin resistant; assay: microbe, parasite or virus in culture; format: cell-based; details: for MIC: Staphylococcus aureus, MRSA, read-out: MIC MRSA
[12] = tested on: Staphylococcus epidermidis H 6966/08; assay: Antibacterial microdilution broth, SE; format: cell-based; details: read-out: MIC SE
[13] = tested on: Enterococcus sp. J 14365/08; assay: Antibacterial microdilution broth, EF; format: cell-based; details: Enterococcus, read-out: MIC EF
[14] = tested on: Escherichia coli CCM 4517; assay: Antibacterial microdilution broth, EC; format: cell-based; details: Escherichia coli, read-out: MIC EC
[15] = tested on: Pseudomonas aeruginosa CCM 1961; assay: Antibacterial microdilution broth, PA; format: cell-based; details: Pseudomonas aeruginosa, read-out: MIC PA
[16] = human, HepG2 cells
[17] = read-out: Mtb H37Rv ATCC 27294 MIC, Middlebrook 7H9 with OADC growth supplement, pH = 6.6, MABA
[18] = CCM4516, 24 h, read-out: MIC SA, 24 h
[19] = CCM4516, 48 h, read-out: MIC SA, 48 h
[20] = Staphylococcus epidermidis, H6966/08, 24 h
[21] = Staphylococcus epidermidis, H6966/08, 48 h
[22] = Candida albicans, ATCC44859, 24 h
[23] = Candida albicans, ATCC44859, 48 h
[24] = Nakaseomyces glabratus, 20/I, 24 h
[25] = Nakaseomyces glabratus, 20/I, 48 h
[26] = Trichosporon asahii, 1188, 24 h
[27] = Trichosporon asahii, 1188, 48 h
[28] = Aspergillus fumigatus, 231, 24 h
[29] = Aspergillus fumigatus, 231, 48 h
[30] = Lichtheimia corymbifera, 272, 24 h
[31] = Lichtheimia corymbifera, 272, 48 h
[32] = Trichophyton interdigitale, 445, 72 h
[33] = Trichophyton interdigitale, 445, 120 h

C[C@@H]1[C@H](O)[C@@H](C)/C=C/C=C/CC/C=C/C=C/C=C/C=C/C(O[C@H]2O[C@H](C)[C@@H](O)[C@H](N)[C@@H]2O)CC2O[C@](O)(CC(O)C(O)CCC(O)CC(O)CC(O)CC(=O)O[C@H]1C)CC(O)C2C(=O)O (some centres unmarked) [NYS, nystatin, reference compound]
MIC ([1]; 24 h): 0.98 µM (≈ 0.908 µg/mL) | MIC ([1]; 48 h): 1.95 µM (≈ 1.81 µg/mL) | MIC (Candida tropicalis 156; 24 h): 1.95 µM (≈ 1.81 µg/mL) | MIC (Candida tropicalis 156; 48 h): 3.9 µM (≈ 3.61 µg/mL) | MIC (Candida krusei E28; 24 h): 1.95 µM (≈ 1.81 µg/mL) | MIC (Candida krusei E28; 48 h): 3.9 µM (≈ 3.61 µg/mL) | MIC (Candida glabrata 20/I; 24 h): 1.95 µM (≈ 1.81 µg/mL) | MIC (Candida glabrata 20/I; 48 h): 3.9 µM (≈ 3.61 µg/mL) | MIC (Trichosporon asahii 1188; 24 h): 1.95 µM (≈ 1.81 µg/mL) | MIC (Trichosporon asahii 1188; 48 h): 1.95 µM (≈ 1.81 µg/mL) | MIC ([2]; 24 h): 1.95 µM (≈ 1.81 µg/mL) | MIC ([2]; 48 h): 3.9 µM (≈ 3.61 µg/mL) | MIC ([3]; 24 h): 15.62 µM (≈ 14.5 µg/mL) | MIC ([3]; 48 h): 31.25 µM (≈ 28.9 µg/mL) | MIC ([4]; 72 h): 3.9 µM (≈ 3.61 µg/mL) | MIC ([4]; 120 h): 7.81 µM (≈ 7.23 µg/mL) | MIC, all tested fungal strains ([5]; read after 24 h (Trichophyton interdigitale 72 h)): 0.98 to 15.62 µM

O=C(Nc1cnc(Cl)cn1)c1cccc(O)c1 [Compound 2c]
Mtb H37Rv ATCC 27294 MIC [6]: >100 µg/mL | MIC [6, 17]: > 100 µg/mL | MIC [7]: > 100 µg/mL | MIC [8]: > 100 µg/mL | MIC [9]: ≥ 500 µg/mL | MIC [10, 18]: 500 µM (≈ 125 µg/mL) | MIC [10, 19]: 500 µM (≈ 125 µg/mL) | MIC MRSA ([11]; 24 h): >500 µM | MIC MRSA ([11]; 48 h): >500 µM | MIC ([11]; 24 h): > 500 µM | MIC ([11]; 48 h): > 500 µM | MIC ([12]; 24 h): >500 µM | MIC ([12]; 48 h): >500 µM | MIC [12, 20]: > 500 µM | MIC [12, 21]: > 500 µM | MIC ([13]; SP.J14365/08, 24 h): > 500 µM | MIC ([13]; SP.J14365/08, 48 h): > 500 µM | MIC ([14]; CCM4517, 24 h): > 500 µM | MIC ([14]; CCM4517, 48 h): > 500 µM | MIC ([15]; CCM1961, 72 h): > 500 µM | MIC ([15]; CCM1961, 120 h): > 500 µM | MIC [1, 22]: 500 µM (≈ 125 µg/mL) | MIC [1, 23]: > 500 µM | MIC (Candida tropicalis 156; Candida tropicalis, 156, 24 h): > 500 µM | MIC (Candida tropicalis 156; Candida tropicalis, 156, 48 h): > 500 µM | MIC (Candida krusei E28; Pichia kudriavzevii, E28, 24 h): > 500 µM | MIC (Candida krusei E28; Pichia kudriavzevii, E28, 48 h): > 500 µM | MIC (Candida glabrata 20/I; [24]): > 500 µM | MIC (Candida glabrata 20/I; [25]): > 500 µM | MIC (Trichosporon asahii 1188; [26]): > 500 µM | MIC (Trichosporon asahii 1188; [27]): > 500 µM | MIC [2, 28]: > 500 µM | MIC [2, 29]: > 500 µM | MIC [3, 30]: > 500 µM | MIC [3, 31]: > 500 µM | MIC [4, 32]: > 500 µM | MIC [4, 33]: > 500 µM | MIC [5]: ≥ 500 µM | melting point: 190.1 to 190.8 °C

CC(=O)Oc1ccccc1C(=O)Nc1cnc(Cl)cn1 [Compound 2b-Ac]
MIC [6, 17]: 12.5 µg/mL | MIC ([6]; read-out: Mtb MIC, molar concentration): 42.9 µM | MIC [7]: 12.5 µg/mL (≈ 42.9 µM) | MIC [8]: 50 µg/mL (≈ 171 µM) | MIC [9]: 31.2 µg/mL (≈ 107 µM) | MIC [10, 18]: 62.5 µM (≈ 18.2 µg/mL) | MIC [10, 19]: 125 µM (≈ 36.5 µg/mL) | MIC ([11]; 24 h): 125 µM (≈ 36.5 µg/mL) | MIC ([11]; 48 h): 250 µM (≈ 72.9 µg/mL) | MIC [12, 20]: 125 µM (≈ 36.5 µg/mL) | MIC [12, 21]: 250 µM (≈ 72.9 µg/mL) | MIC ([13]; SP.J14365/08, 24 h): 250 µM (≈ 72.9 µg/mL) | MIC ([13]; SP.J14365/08, 48 h): > 250 µM | MIC ([14]; CCM4517, 24 h): > 250 µM | MIC ([14]; CCM4517, 48 h): > 250 µM | MIC ([15]; CCM1961, 72 h): > 250 µM | MIC ([15]; CCM1961, 120 h): > 250 µM | MIC [1, 22]: 125 µM (≈ 36.5 µg/mL) | MIC [1, 23]: 125 µM (≈ 36.5 µg/mL) | MIC (Candida tropicalis 156; Candida tropicalis, 156, 24 h): 250 µM (≈ 72.9 µg/mL) | MIC (Candida tropicalis 156; Candida tropicalis, 156, 48 h): 250 µM (≈ 72.9 µg/mL) | MIC (Candida krusei E28; Pichia kudriavzevii, E28, 24 h): 125 µM (≈ 36.5 µg/mL) | MIC (Candida krusei E28; Pichia kudriavzevii, E28, 48 h): 125 µM (≈ 36.5 µg/mL) | MIC (Candida glabrata 20/I; [24]): 250 µM (≈ 72.9 µg/mL) | MIC (Candida glabrata 20/I; [25]): 250 µM (≈ 72.9 µg/mL) | MIC (Trichosporon asahii 1188; [26]): 125 µM (≈ 36.5 µg/mL) | MIC (Trichosporon asahii 1188; [27]): 125 µM (≈ 36.5 µg/mL) | MIC [2, 28]: 250 µM (≈ 72.9 µg/mL) | MIC [2, 29]: 250 µM (≈ 72.9 µg/mL) | MIC [3, 30]: 125 µM (≈ 36.5 µg/mL) | MIC [3, 31]: 125 µM (≈ 36.5 µg/mL) | MIC [4, 32]: 250 µM (≈ 72.9 µg/mL) | MIC [4, 33]: 250 µM (≈ 72.9 µg/mL) | MIC [5]: 125 to 250 µM (≈ 36.5 to 72.9 µg/mL) | IC50 at 24 h [16]: 95.4 µM

O=C(Nc1cnc(Cl)cn1)c1ccc(O)cc1 [Compound 2d]
Mtb H37Rv ATCC 27294 MIC [6]: >100 µg/mL | MIC [6, 17]: > 100 µg/mL | MIC [7]: > 100 µg/mL | MIC [8]: > 100 µg/mL | MIC [9]: ≥ 500 µg/mL | MIC [10, 18]: 31.2 µM (≈ 7.8 µg/mL) | MIC [10, 19]: 31.2 µM (≈ 7.8 µg/mL) | MIC MRSA ([11]; 24 h): >500 µM | MIC MRSA ([11]; 48 h): >500 µM | MIC ([11]; 24 h): > 500 µM | MIC ([11]; 48 h): > 500 µM | MIC [12, 20]: 500 µM (≈ 125 µg/mL) | MIC [12, 21]: 500 µM (≈ 125 µg/mL) | MIC ([13]; SP.J14365/08, 24 h): > 500 µM | MIC ([13]; SP.J14365/08, 48 h): > 500 µM | MIC ([14]; CCM4517, 24 h): > 500 µM | MIC ([14]; CCM4517, 48 h): > 500 µM | MIC ([15]; CCM1961, 72 h): > 500 µM | MIC ([15]; CCM1961, 120 h): > 500 µM | MIC [1, 22]: 500 µM (≈ 125 µg/mL) | MIC [1, 23]: > 500 µM | MIC (Candida tropicalis 156; Candida tropicalis, 156, 24 h): > 500 µM | MIC (Candida tropicalis 156; Candida tropicalis, 156, 48 h): > 500 µM | MIC (Candida krusei E28; Pichia kudriavzevii, E28, 24 h): > 500 µM | MIC (Candida krusei E28; Pichia kudriavzevii, E28, 48 h): > 500 µM | MIC (Candida glabrata 20/I; [24]): > 500 µM | MIC (Candida glabrata 20/I; [25]): > 500 µM | MIC (Trichosporon asahii 1188; [26]): > 500 µM | MIC (Trichosporon asahii 1188; [27]): > 500 µM | MIC [2, 28]: > 500 µM | MIC [2, 29]: > 500 µM | MIC [3, 30]: > 500 µM | MIC [3, 31]: > 500 µM | MIC [4, 32]: > 500 µM | MIC [4, 33]: > 500 µM | MIC [5]: ≥ 500 µM | melting point: 210.9 to 212.6 °C
